Test results: patent US12410171B2, “Tropomyosin receptor kinase (TRK) degradation compounds and methods of use” (Cullgen (Shanghai), Inc., priority 2020, dated 2025)

Target: T1, TPM3-TRKA fusion protein (Homo sapiens, UniProt P04629)
T1 construct: The resulted chimeric proteins always retain the kinase domain of TRK proteins; TPM3 (fusion partner, N-terminal part of tropomyosin alpha-3, P06753); endogenous in cells; host or cells: KM12 colon cancer cells; the other entry of the earlier key: TPM3 (P06753, Tropomyosin alpha-3 chain)
Experiment: TPM3-TRKA fusion protein levels in KM12 cells (Western blot)
Type: cell-based
Settings: 16 h; TPM3-TRKA degradation in KM12 cells at 10 nM compound, category of percentage degradation; read-out: Degradation (at 10 nM)
Procedure: KM12 cells were treated with DMSO or indicated compounds at 100 nM for 16 hours.
KM12 cells were treated with DMSO or indicated compounds at 0. 1 nM, 1 nM or 10 nM for 16 hours.
KM12 cells were treated with DMSO or indicated compounds at various concentrations for 16 hours.
KM12 cells were treated with DMSO or indicated compounds at various concentrations for 4 hours.
KM12 cells (a cancer model comprising a colon cancer cell line) were treated with DMSO or indicated compounds at various concentrations for 4 hours.
KM12 cells were treated with heterobifunctional compounds or their corresponding control compounds at 10 nM or 100 nM for 16 hours.
KM12 cells were treated with heterobifunctional compounds or their corresponding control compounds at 0.4-30 nM for 8-16 hours. […] Cells were authenticated using the short tandem repeat (STR) assays. […] Stable cell lines were established by lentivirus transduction, selected and maintained in medium containing 1 μg/mL puromycin (Beyotime Biotechnology).
Cultured cells were washed with cold PBS once and lysed in cold RIPA buffer supplemented with protease inhibitors and phosphatase inhibitors (Beyotime Biotechnology). The solutions were then incubated at 4° C. for 30 minutes with gentle agitation to fully lyse cells. For tumor tissues, tumors were cut into small pieces, milled with cold RIPA buffer using a mechanical homogenizer and lysed for 1 hour at 4° C. Cell lysates were centrifuged at 13,000 rpm for 10 minutes at 4° C. and pellets were discarded. Total protein concentrations in the lysates were determined by BCA assays (Beyotime Biotechnology). Cell lysates were mixed with Laemmli loading buffer to 1× and heated at 99° C. for 5 min. Proteins were resolved on SDS-PAGE and visualized by chemiluminescence. Images were taken by a ChemiDoc MP Imaging system (Bio-Rad). Protein bands were quantitated using the software provided by Bio-Rad.

T1 sequence (P04629 with tags, fused parts or gaps): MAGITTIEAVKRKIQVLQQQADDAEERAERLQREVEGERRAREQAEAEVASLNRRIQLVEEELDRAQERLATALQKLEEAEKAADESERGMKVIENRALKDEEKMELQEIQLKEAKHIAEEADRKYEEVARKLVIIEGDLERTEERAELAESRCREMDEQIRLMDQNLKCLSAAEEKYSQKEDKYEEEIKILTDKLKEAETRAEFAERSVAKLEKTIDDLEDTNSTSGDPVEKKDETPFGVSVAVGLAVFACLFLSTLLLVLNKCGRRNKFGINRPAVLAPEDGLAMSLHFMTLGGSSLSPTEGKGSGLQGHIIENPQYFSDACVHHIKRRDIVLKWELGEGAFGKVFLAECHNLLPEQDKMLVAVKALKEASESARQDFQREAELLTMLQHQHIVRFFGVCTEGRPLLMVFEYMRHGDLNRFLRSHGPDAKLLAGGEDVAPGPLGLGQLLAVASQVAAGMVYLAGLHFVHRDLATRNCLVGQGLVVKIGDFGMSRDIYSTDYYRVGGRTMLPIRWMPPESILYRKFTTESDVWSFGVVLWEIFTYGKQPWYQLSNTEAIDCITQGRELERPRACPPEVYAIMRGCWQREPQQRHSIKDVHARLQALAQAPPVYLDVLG

| percent degradation of TPM3-TRKA protein at 0.01 µM [%] | Structure (SMILES) |
| --- | --- |
| 50 to 80 | Cc1ncsc1-c1ccc(CNC(=O)[C@@H]2C[C@@H](O)CN2C(=O)[C@@H](NC(=O)CCCCCCCC(=O)N2CCN(c3ccc(C(=O)Nc4n[nH]c5ccc(Cc6cc(F)cc(F)c6)cc45)c(NC4CCOCC4)c3)CC2)C(C)(C)C)cc1 [CPD-037, (25,4R)-1-((S)-2-(9-(4-(4-((5-(3,5-Difluorobenzyl)-1H-indazol-3-yl)carbamoyl)-3-((tetrahydro-2H-pyran-4-yl)amino)phenyl)piperazin-1-yl)-9-oxononanamido)-3,3-dimethylbutanoyl)-4-hydroxy-N-(4-(4-methylthiazol-S-yl)benzyl)pyrrolidine-2-carboxamide] |
| > 80 | O=C1CCC(N2C(=O)c3ccc(NCCC(=O)N4CCN(c5cccc(-c6cnc7ccc(N8CCC[C@@H]8c8cccc(F)c8)nn67)n5)CC4)cc3C2=O)C(=O)N1 (stereo partly drawn) [TR-121, 2-(2,6-Dioxopiperidin-3-yl)-5-((3-(4-(6-(6-((R)-2-(3-fluorophenyl)pyrrolidin-1-yl)imidazo[1,2-b]pyridazin-3-yl)pyridin-2-yl)piperazin-1-yl)-3-oxopropyl)amino) isoindoline-1,3-dione] |
| > 80 | O=C1CCC(N2Cc3cc(CCCN4CCN(c5cccc(-c6cnc7ccc(N8CCC[C@@H]8c8cccc(F)c8)nn67)n5)CC4)ccc3C2=O)C(=O)N1 (stereo partly drawn) [TR-186, 3-(5-(3-(4-(6-(6-((R)-2-(3-fluorophenyl)pyrrolidin-1-yl)imidazo[1,2-b]pyridazin-3-yl)pyridin-2-yl)piperazin-1-yl)propyl)-1-oxoisoindolin-2-yl)piperidine-2,6-dione] |
| > 80 | O=C1CCC(N2C(=O)c3cccc(NCCCCCCCC(=O)N4CCN(c5cccc(-c6cnc7ccc(N8CCC[C@@H]8c8cccc(F)c8)nn67)n5)CC4)c3C2=O)C(=O)N1 (stereo partly drawn) [CPD-024, 2-(2,6-Dioxopiperidin-3-yl)-4-((8-(4-(6-(6-((R)-2-(3-fluorophenyl)pyrrolidin-1-yl)imidazo[1,2-b]pyridazin-3-yl)pyridin-2-yl)piperazin-1-yl)-8-oxooctyl)amino) isoindoline-1,3-dione] |
| > 80 | O=C(CN1CCN(c2cccc(-c3cnc4ccc(N5CCC[C@@H]5c5cccc(F)c5)nn34)n2)CC1)NCCCCNc1ccc2c(c1)C(=O)N(C1CCC(=O)NC1=O)C2=O (stereo partly drawn) [TR-124, N-(4-((2-(2,6-dioxopiperidin-3-yl)-1,3-dioxoisoindolin-S-yl)amino)butyl)-2-(4-(6-(6-((R)-2-(3-fluorophenyl)pyrrolidin-1-yl)imidazo[1,2-b]pyridazin-3-yl)pyridin-2-yl)piperazin-1-yl)acetamide] |
| > 80 | O=C1CCC(N2C(=O)c3ccc(NCCCCCCCC(=O)N4CCN(c5cccc(-c6cnc7ccc(N8CCC[C@@H]8c8cccc(F)c8)nn67)n5)CC4)cc3C2=O)C(=O)N1 (stereo partly drawn) [TR-118, 2-(2,6-Dioxopiperidin-3-yl)-5-((8-(4-(6-(6-((R)-2-(3-fluorophenyl)pyrrolidin-1-yl)imidazo[1,2-b]pyridazin-3-yl)pyridin-2-yl)piperazin-1-yl)-8-oxooctyl)amino) isoindoline-1,3-dione] |
| > 80 | O=C(CN1CCN(c2ccc(C(=O)Nc3n[nH]c4ccc(Cc5cc(F)cc(F)c5)cc34)c(NC3CCOCC3)c2)CC1)NCCOCCOCCOCCOCCOCCNc1cccc2c1C(=O)N(C1CCC(=O)NC1=O)C2=O (stereo not shown) [CPD-065, N-(5-(3,5-Difluorobenzyl)-1H-indazol-3-yl)-4-(4-(20-((2-(2,6-dioxopiperidin-3-yl)-1,3-dioxoisoindolin-4-yl)amino)-2-oxo-6,9,12,15,18-pentaoxa-3-azaicosyl)piperazin-1-yl)-2-((tetrahydro-2H-pyran-4-yl)amino)benzamide] |
| < 50 | Cc1ncsc1-c1ccc(CNC(=O)[C@@H]2C[C@@H](O)CN2C(=O)[C@@H](NC(=O)CCCCCCCCCC(=O)N2CCN(c3ccc(C(=O)Nc4n[nH]c5ccc(Cc6cc(F)cc(F)c6)cc45)c(NC4CCOCC4)c3)CC2)C(C)(C)C)cc1 [CPD-035, (25,4R)-1-((S)-2-(11-(4-(4-((5-(3,5-Difluorobenzyl)-1H-indazol-3-yl)carbamoyl)-3-((tetrahydro-2H-pyran-4-yl)amino)phenyl)piperazin-1-yl)-11-oxoundecanamido)-3,3-dimethylbutanoyl)-4-hydroxy-N-(4-(4-methylthiazol-5-yl)benzyl)pyrrolidine-2-carboxamide] |
| > 80 | O=C1CCC(N2C(=O)c3ccc(NCCN4CCN(c5ccc(C(=O)Nc6n[nH]c7ccc(Cc8cc(F)cc(F)c8)cc67)c(NC6CCOCC6)c5)CC4)cc3C2=O)C(=O)N1 (stereo not shown) [TR-232, N-(5-(3,5-difluorobenzyl)-1H-indazol-3-yl)-4-(4-(2-((2-(2,6-dioxopiperidin-3-yl)-1,3-dioxoisoindolin-5-yl)amino)ethyl)piperazin-1-yl)-2-((tetrahydro-2H-pyran-4-yl)amino)benzamide] |
| 50 to 80 | O=C1CCC(N2C(=O)c3cccc(NCCCCCCC(=O)N4CCN(c5cccc(-c6cnc7ccc(N8CCC[C@@H]8c8cccc(F)c8)nn67)n5)CC4)c3C2=O)C(=O)N1 (stereo partly drawn) [CPD-009, 2-(2,6-Dioxopiperidin-3-yl)-4-((7-(4-(6-(6-((R)-2-(3-fluorophenyl)pyrrolidin-1-yl)imidazo[1,2-b]pyridazin-3-yl)pyridin-2-yl)piperazin-1-yl)-7-oxoheptyl)amino) isoindoline-1,3-dione] |
| > 80 | O=C(CN1CCN(c2ccc(C(=O)Nc3n[nH]c4ccc(Cc5cc(F)cc(F)c5)cc34)c(NC3CCOCC3)c2)CC1)NCCCCNc1cccc2c1C(=O)N(C1CCC(=O)NC1=O)C2=O (stereo not shown) [TR-155, N-(5-(3,5-Difluorobenzyl)-1H-indazol-3-yl)-4-(4-(2-((4-((2-(2,6-dioxopiperidin-3-yl)-1,3-dioxoisoindolin-4-yl)amino)butyl)amino)-2-oxoethyl)piperazin-1-yl)-2-((tetrahydro-2/-pyran-4-yl)amino)benzamide] |
| > 80 | O=C1CCC(N2C(=O)c3ccc(NCCOCCOCCC(=O)N4CCN(c5ccc(C(=O)Nc6n[nH]c7ccc(Cc8cc(F)cc(F)c8)cc67)c(NC6CCOCC6)c5)CC4)cc3C2=O)C(=O)N1 (stereo not shown) [TR-141, N-(5-(3,5-Difluorobenzyl)-1H-indazol-3-yl)-4-(4-(3-(2-(2-((2-(2,6-dioxopiperidin-3-yl)-1,3-dioxoisoindolin-5-yl)amino)ethoxy)ethoxy)propanoyl)piperazin-1-yl)-2-((tetrahydro-2H-pyran-4-yl)amino)benzamide] |
| > 80 | Cc1ncsc1-c1ccc(CNC(=O)[C@@H]2C[C@@H](O)CN2C(=O)[C@@H](NC(=O)CCCCCCC(=O)N2CCN(c3ccc(C(=O)Nc4n[nH]c5ccc(Cc6cc(F)cc(F)c6)cc45)c(NC4CCOCC4)c3)CC2)C(C)(C)C)cc1 [CPD-033, (2S,4R)-1-((S)-2-(8-(4-(4-((5-(3,5-Difluorobenzyl)-1H-indazol-3-yl)carbamoyl)-3-((tetrahydro-2H-pyran-4-yl)amino)phenyl)piperazin-1-yl)-8-oxooctanamido)-3,3-dimethylbutanoyl)-4-hydroxy-N-(4-(4-methylthiazol-5-yl)benzyl)pyrrolidine-2-carboxamide] |
| > 80 | O=C1CCC(N2C(=O)c3cccc(NCC(=O)N4CCN(c5cccc(-c6cnc7ccc(N8CCC[C@@H]8c8cccc(F)c8)nn67)n5)CC4)c3C2=O)C(=O)N1 (stereo partly drawn) [CPD-023, 2-(2,6-Dioxopiperidin-3-yl)-4-((2˜ (4-(6-(6-((R)-2-(3-fluorophenyl)pyrrolidin-1-yl)imidazo[1,2-b]pyridazin-3-yl)pyridin-2-yl)piperazin-1-yl)-2-oxoethyl)amino) isoindoline-1,3-dione] |
| > 80 | O=C(CN1CCN(c2cccc(-c3cnc4ccc(N5CCC[C@@H]5c5cccc(F)c5)nn34)n2)CC1)NCCCNc1ccc2c(c1)C(=O)N(C1CCC(=O)NC1=O)C2=O (stereo partly drawn) [TR-127, N-(3-((2-(2,6-dioxopiperidin-3-yl)-1,3-dioxoisoindolin-S-yl)amino)propyl)-2-(4-(6-(6-((R)-2-(3-fluorophenyl)pyrrolidin-1-yl)imidazo[1,2-b]pyridazin-3-yl)pyridin-2-yl)piperazin-1-yl)acetamide] |
| > 80 | O=C1CCC(N2C(=O)c3ccc(NCCOCCOCCOCCOCCC(=O)N4CCN(c5cccc(-c6cnc7ccc(N8CCC[C@@H]8c8cccc(F)c8)nn67)n5)CC4)cc3C2=O)C(=O)N1 (stereo partly drawn) [TR-120, 2-(2,6-Dioxopiperidin-3-yl)-5-((15-(4-(6-(6-((R)-2-(3-fluorophenyl)pyrrolidin-1-yl)imidazo[1,2-6]pyridazin-3-yl)pyridin-2-yl)piperazin-1-yl)-15-oxo-3,6,9,12-tetraoxapentadecyl)amino) isoindoline-1,3-dione] |
